Columns and labels:
[1] = test system: NCI-H23 lung adenocarcinoma (LUAD) cells; assay: Spheroid growth inhibition (SGI) assay, NCI-H23; assay type: cell-based; conditions: NCI-H23 spheroids; 30 nM palbociclib, 300 nM PF-07220060, 300 nM PF-07104091; 14 days
Description: NCI-H1792 and NCI-H23 lung adenocarcinoma (LUAD) cells lines were obtained from ATCC and maintained in RPMI 1640 medium supplemented with 10% fetal bovine serum and penicillin-streptomycin as per ATCC guidelines. Cells were maintained in humidified incubator at 37° C. with 5% CO2.
Spheroid assays were performed in 96 well ultralow attachment plates (ULA-96U) from Nexcelom & Thermo Fisher Scientific. […] To aid spheroid formation, dispensed cells were centrifuged at 220×g for 6 minutes in the ultralow attachment plates and allowed to form compact spheroids for 4 days prior to the initiation of treatment. […] DMSO (0.01%) was used as the vehicle control. DMSO and all compounds were diluted in cell medium. Medium and compounds were replenished twice per week, with 3 and 4-day intervals. Replenishment was executed by aspirating 150 μL of medium per well without disturbing the spheroid and then adding the same volume of premixed medium/compound solution to spheroids. Spheroid diameter was quantified immediately following each medium change twice a week (on every 3rd or 4th day) throughout the duration of the assay.
Average diameters of tumor spheroids were plotted in GraphPad Prism 8 and the AUC calculated. AUC baseline was determined by the average tumor spheroid diameter at Day 0 in the vehicle (DMSO) controls. Spheroid growth inhibition, or SGI, was calculated as follows: SGI=(1−AUC treatment/AUC DMSO)×100%. SGI for all treatment arms was derived at the timepoint when the vehicle (DMSO) treated spheroids reach their maximal diameter (usually close to 1 mm but this can differ among cell lines); this corresponds to the last time point taken for the vehicle (DMSO) treated spheroids. SEM was calculated based on n=10 to 12 wells per test group.
Growth of lung adenocarcinoma multicellular tumor spheroids (MCTS) was monitored over time to assess: (i) amplitude of response (SGI) and (ii) duration of response to the CDK4 inhibitor PF-07220060 as a single agent, and in combination with the CDK2 inhibitor PF-07104091.

[2] = test system: MCF7 breast cancer cell line; assay: Cell proliferation combination assay (Loewe Volume, CI), MCF7; assay type: cell-based, Human; conditions: MCF7 cells; for Best CI: Best CI Level 70
Description: The combination effects of PF-07104091 and PF-07220060 were evaluated in a cell proliferation assay with MCF7 and T47D BC cell lines.
Drug combinations were analyzed using the Dose Equivalence Principle, and the Loewe Volume score. When modeling synergy using the Dose Equivalence Principle, the Loewe Volume score for the combination compounds should be greater than the compound self-cross controls, and the Combination Index (C) score for the combination compounds should be less than compound self-cross controls. […] The isobolograms set to an anti-proliferation threshold at 70% confirmed a synergistic response.

ST941 PBR PDX model = assay: In vivo efficacy, palbociclib-resistant ST941 PBR PDX model (Example 4); parameters: species or system NSG mice; conditions: ST941PBR, Day 28; PO BID: PF-07104091 120 mpk, PF-07220060 60 mpk, PF-06873600 30 mpk, palbociclib 10 mpk; fulvestrant 10 mpk SC
Description: Female NSG mice (Jackson Lab) were subcutaneously implanted with fragment (27 mm^3 to 64 mm^3 size) into the dorsal region. All mice for HCC1428, MCF7 and ST941 PBR studies were supplemented with 8.5 μg/mL estradiol water (β-Estradiol Sigma-Aldrich, cat #E2758-5G) and gave ad libitum till end of study. For the in vivo efficacy studies, tumor volume and body weights were measured twice a week. Tumor volume was calculated using the [(Length×Width×Width)/2)] formula. TGI was calculated as 100*(1−ΔT/ΔC). The ΔC (ΔT) was obtained by subtracting the mean tumor burden in the vehicle (treated) group on the first day of treatment (Day 0) from the mean tumor burden in vehicle (treated) group on the assessment day. Statistical analysis was performed using ANCOVA when the mean tumor volume in vehicle treated mice reached tumor cutoff size.
We established model in house by continuous treatment of the ST941 PBR tumor bearing mice with PD-0332991 at 50 mg/kg, PO QD plus fulvestrant at 10 mg/kg, SC twice in the first week, then weekly thereafter. To propagate donors for the TGI study, tumors were transplanted to recipient mice. One week after the re-implantation, the recipient mice received continuous treatment with palbociclib plus fulvestrant (dosing schedule described above). After 1 to 2 serial in vivo propagation with the same treatment regimen, the resistant tumors in the range of 700 to 800 mm^3 were re-implanted for a study expansion. The remaining tumor fragments were viably frozen for future use.
The live donor mice were established by implanting ST941 PBR (p13) tumor fragments. Once reaching a range of 700 to 800 mm^3, the donor tumors were subsequently transplanted into secondary recipient mice for a study expansion. To maintain the resistant clones, the ST941 PBR tumor bearing mice were treated with PD-0332991 at 50 mg/kg, PO. QD plus fulvestrant at 10 mg/kg, SC twice in the first week, then weekly afterwards for 10 weeks. The treatment was initiated one week after the implant until day of randomization for study enrollment. […] PF-07104091 (lot 021), PF-07220060 (lot CPo126812-01-SY-5700-01), PF-06873600 (lot 022) and PD-0332991 (lot GR08498) were administered (PO) BID (7 hr apart) while fulvestrant (lot 20160224-2) at 10 mg/kg, SC twice in the first week, then weekly afterwards. All mice received treatment continuously until Day 28. TGI was assessed on Day 28 post first dose.

A427 = assay: Combinatorial activity in LUAD cell line A427; assay type: cell-based; conditions: Homo sapiens, A-427; A427, KRAS G12D; single agent; read-out: (nM) s.a.
Description: (§1) Combinatorial activity of PF-07104091 and PF-07220060 was assessed in LUADs as single agents (s.a.) or in combination.

NCIH1944 = assay: Combinatorial activity in LUAD cell line NCIH1944; assay type: cell-based; conditions: Homo sapiens, NCI-H1944; NCIH1944, KRAS G13D; single agent; read-out: (nM) s.a.
Description: as §1

A549 = assay: Combinatorial activity in LUAD cell line A549; assay type: cell-based; conditions: Homo sapiens; A549, WT; single agent; read-out: (nM) s.a.
Description: as §1

ABC1 = assay: Combinatorial activity in LUAD cell line ABC1; assay type: cell-based; conditions: Homo sapiens, ABC-1; ABC1, WT; single agent; read-out: (nM) s.a.
Description: as §1

CALU6 = assay: Combinatorial activity in LUAD cell line CALU6; assay type: cell-based; conditions: Homo sapiens, Calu-6; CALU6, WT; single agent; read-out: (nM) s.a.
Description: as §1

NCIH2023 = assay: Combinatorial activity in LUAD cell line NCIH2023; assay type: cell-based; conditions: NCI-H2023; NCIH2023, WT; single agent; read-out: (nM) s.a.
Description: as §1

IC50 (A427) | IC50 (NCIH1944) | IC50 (A549) | IC50 (ABC1) | IC50 (CALU6) | IC50 (NCIH2023) | SMILES | SGI (%) [1] | Loewe Volume [2] | Best CI [2] | TGI % (ST941 PBR PDX model)
276 nM | 227 nM | 574 nM | 716 nM | 268 nM | > 450 nM | COCc1cc(C(=O)Nc2cc([C@H]3CC[C@@H](OC(=O)NC(C)C)C3)[nH]n2)n(C)n1 [PF-07104091, (1R,3S)-3-[3-({[3-(methoxymethyl)-1-methyl-1H-pyrazol-5-yl]carbonyl}amino)-1H-pyrazol-5-yl]cyclopentyl propan-2-ylcarbamate] | 9% | −0.08 | 1.04 | 36%
124 nM | 398 nM | 814 nM | 408 nM | 155 nM | 310 nM | CC(C)n1c(C(C)(C)O)nc2c(F)cc(-c3nc(N[C@@H]4CCOC[C@H]4O)ncc3Cl)cc21 [PF-07220060, 1,5-anhydro-3-({5-chloro-4-[4-fluoro-2-(2-hydroxypropan-2-yl)-1-(propan-2-yl)-1H-benzimidazol-6-yl]pyrimidin-2-yl}amino)-2,3-dideoxy-D-threo-pentitol] | 35% | −0.02 | 1.06 | 19%

— patent US20250041277A1, “METHODS AND DOSING REGIMENS COMPRISING A CDK2 INHIBITOR AND A CDK4 INHIBITOR FOR TREATING CANCER” (PFIZER INC., priority 2021, published 2025)
